The record followed here is DBAASP.

Values after ≈ are worked out from the molar mass of the structure shown.

Some test systems named below: Enterococcus faecium; Escherichia coli O157; Pseudomonas aeruginosa 1; Pseudomonas aeruginosa; Staphylococcus aureus 1; Staphylococcus aureus 4; Staphylococcus aureus; Acinetobacter junii RT-4; Bacillus megaterium Bm11; Escherichia coli D21; Saccharomyces cerevisiae; Staphylococcus capitis 1; Bacillus subtilis; Enterobacter cloacae; Escherichia coli.
Common to all, as to experiment: ≥ marks a high value that may be exact or a test limit, other limits are often not marked, values filed in µg/mL are converted to µM
In test [1] the test system is Candida albicans ATCC 90028.
Test [2] relates to Candida parapsilosis ATCC 22019.
Test [3] concerns Malassezia furfur KCTC 7744.
In test [4] the test system is Trichosporon beigelii KCTC 7707.
The test system of test [5] is Batrachochytrium dendrobatidis JEL-197.
Test [6] relates to Escherichia coli ATCC 25726.
In test [7] the test system is Staphylococcus aureus ATCC 25923.
In test [8] the test system is Bacillus subtilis ATCC 6633.
In test [9] the test system is Candida albicans ATCC 20032.
In test [10] the test system is Escherichia coli ATCC 25922.
The test system of test [11] is Candida albicans NCTC 3179.
The subject of test [12] is Enterococcus faecalis NCTC 12697.
Test [13] relates to Fusobacterium nucleatum NCTC 10562.
Test [14] concerns Pseudomonas aeruginosa ATCC 27853.
Test [15] relates to Pseudomonas aeruginosa PAO239.
Test [16] deals with Streptococcus mutans ATCC 10449.
Test [17] deals with Acinetobacter baumannii ATCC 19606.
The subject of test [18] is Candida albicans ATCC 10231.
In test [19] the test system is Enterococcus faecalis ATCC 29212.
The subject of test [20] is Pseudomonas aeruginosa ATCC 15692.
For test [21], the system named is Pseudomonas syringae pv. tabaci 1918NCPPB.
Test [22] has as its system Schizosaccharomyces pombe.
The subject of test [23] is Staphylococcus aureus Cowan 1.
Test [24] has as its system Staphylococcus epidermidis ATCC 12228.
The subject of test [25] is Streptococcus pyogenes ATCC 21547.
Test [26] concerns Yersinia pseudotuberculosis YPIII.
The test system of test [27] is Salmonella enterica subsp. enterica serovar Typhi.

As for `CC[C@H](C)[C@H](NC(=O)[C@H](CC(C)C)NC(=O)[C@H](CCCN=C(N)N)NC(=O)[C@@H](NC(=O)[C@H](C)NC(=O)[C@H](CCCCN)NC(=O)[C@H](CC(C)C)NC(=O)[C@H](CC(C)C)NC(=O)[C@@H](N)CCC(=O)O)C(C)C)C(=O)N[C@@H](CCCCN)C(=O)O` [ELLKAVRLIK], the MIC in [1] was 10 µM (≈ 11.8 µg/mL); in test [2], 10 µM (≈ 11.8 µg/mL); in the test on Enterococcus faecium it was 10 µM (≈ 11.8 µg/mL); against Escherichia coli O157, 10 µM (≈ 11.8 µg/mL); in test [3], 20 µM (≈ 23.7 µg/mL); against Pseudomonas aeruginosa 1, 10 µM (≈ 11.8 µg/mL). Moreover, the MIC is 5 µM (≈ 5.91 µg/mL) against Pseudomonas aeruginosa; 5 µM (≈ 5.91 µg/mL) with Staphylococcus aureus 1; 10 µM (≈ 11.8 µg/mL) against Staphylococcus aureus 4; 20 µM (≈ 23.7 µg/mL) against Staphylococcus aureus; 28.3 µM (≈ 33.4 µg/mL) in [4].
As to `CSCC[C@H](NC(=O)[C@H](C)NC(=O)[C@H](CC(C)C)NC(=O)[C@@H]1CCCN1C(=O)[C@H](CC(C)C)NC(=O)[C@@H](N)Cc1ccccc1)C(=O)N[C@@H](C)C(=O)N[C@@H](CC(C)C)C(=O)NCC(=O)N[C@@H](CCCCN)C(=O)N[C@@H](CC(C)C)C(=O)N[C@@H](CC(C)C)C(N)=O` [FLPLAMALGKLL], the MIC is not below 100 µM in test [5], not below 160 µM in test [6] and 40 µM (≈ 51.4 µg/mL) in [7].
As for `CC[C@H](C)[C@H](NC(=O)CN)C(=O)NCC(=O)N[C@H](C(=O)N[C@@H](CCCCN)C(=O)N[C@H](C(=O)N[C@@H](CC(C)C)C(=O)NCC(=O)NCC(=O)N[C@H](C(=O)N[C@@H](CCCCN)C(=O)N[C@@H](C)C(=O)N[C@@H](C)C(=O)N[C@@H](CC(C)C)C(=O)N[C@@H](CCCCN)C(=O)NCC(=O)N[C@@H](C)C(=O)N[C@@H](CC(C)C)C(=O)N[C@@H](CCCCN)C(=O)N[C@@H](CCC(=O)O)C(=O)N[C@@H](CC(C)C)C(=O)N[C@@H](C)C(=O)N[C@@H](CO)C(=O)N[C@H](C(=O)N[C@@H](Cc1ccc(O)cc1)C(=O)N[C@H](C(=O)N[C@@H](CC(N)=O)C(N)=O)C(C)C)[C@@H](C)O)C(C)C)[C@@H](C)CC)[C@@H](C)O` [GIGTKILGGVKAALKGALKELASTYVN], the minimum inhibitory concentration (MIC) in test [8] is 28.1 µM (≈ 75 µg/mL); in [9] it was not below 37.4 µM; in test [10] it was 7.03 µM (≈ 18.8 µg/mL); in test [7] it was 3.52 µM (≈ 9.4 µg/mL).
For the compound `CC[C@H](C)[C@H](NC(=O)CNC(=O)CNC(=O)[C@@H](NC(=O)[C@H](Cc1ccccc1)NC(=O)[C@H](C)NC(=O)[C@H](CCCCN)NC(=O)CNC(=O)[C@H](Cc1ccccc1)NC(=O)[C@H](CCCCN)NC(=O)CNC(=O)[C@H](CC(C)C)NC(=O)[C@H](CO)NC(=O)[C@H](Cc1cnc[nH]1)NC(=O)[C@H](C)NC(=O)[C@H](Cc1ccccc1)NC(=O)[C@H](CCC(=O)O)NC(=O)[C@H](CCCCN)NC(=O)[C@@H](NC(=O)CN)[C@@H](C)CC)C(C)C)C(=O)N[C@@H](CC(C)C)C(=O)N[C@@H](CC(N)=O)C(=O)N[C@@H](CCC(N)=O)C(=O)O` [GIKEFAHSLGKFGKAFVGGILNQ], the minimal inhibitory concentration (MIC) in test [11] is not below 100 µM; in test [12] it was not below 100 µM; in test [6], not below 50 µM; in test [10], more than 200 µM; in test [13], 12.5 µM (≈ 30.2 µg/mL); in test [14], more than 100 µM. Further, the MIC was not below 100 µM in [15], more than 200 µM in test [7] and not below 50 µM in test [16].
Take `CC(C)C[C@H](NC(=O)[C@H](Cc1c[nH]c2ccccc12)NC(=O)[C@H](CCCN=C(N)N)NC(=O)CNC(=O)[C@H](CC(C)C)NC(=O)[C@H](CC(C)C)NC(=O)[C@H](CCCCN)NC(=O)[C@H](CO)NC(=O)[C@H](CC(C)C)NC(=O)[C@H](Cc1c[nH]c2ccccc12)NC(=O)[C@H](CCC(N)=O)NC(=O)[C@H](CC(C)C)NC(=O)[C@@H](N)CC(C)C)C(N)=O` [LLQWLSKLLGRWL]: the MIC in test [17] was 6 µM (≈ 9.75 µg/mL); in the test on Acinetobacter junii RT-4 it was 6 µM (≈ 9.75 µg/mL); in the test on Bacillus megaterium Bm11, 3 µM (≈ 4.88 µg/mL); in [18] it was 12 µM (≈ 19.5 µg/mL); in test [19], 12 µM (≈ 19.5 µg/mL); in [10] it was more than 48 µM. Moreover, the MIC in the test on Escherichia coli D21 is not below 48 µM; in test [20], not below 48 µM; in test [14] it was more than 48 µM; in test [21], 12 µM (≈ 19.5 µg/mL); with Saccharomyces cerevisiae, 12 µM (≈ 19.5 µg/mL); in [22] it was 6 µM (≈ 9.75 µg/mL). Further, the MIC was found to be 6 µM (≈ 9.75 µg/mL) in [7]; 6 µM (≈ 9.75 µg/mL) in [23]; 6 µM (≈ 9.75 µg/mL) in the test with Staphylococcus capitis 1; 3 µM (≈ 4.88 µg/mL) in test [24]; 6 µM (≈ 9.75 µg/mL) in [25]; 6 µM (≈ 9.75 µg/mL) in [26].
In the case of `CC(C)C[C@H](NC(=O)[C@H](CCCCN)NC(=O)[C@H](CCCN=C(N)N)NC(=O)[C@H](Cc1ccccc1)NC(=O)[C@H](Cc1ccccc1)NC(=O)[C@H](CCCCN)NC(=O)[C@H](CCCCN)NC(=O)[C@H](Cc1ccccc1)NC(=O)[C@H](CCCN=C(N)N)NC(=O)[C@H](CCCCN)NC(=O)[C@@H](NC(=O)[C@@H](N)CC(C)C)C(C)C)C(=O)N[C@@H](CCCCN)C(=O)N[C@@H](CCCCN)C(=O)N[C@@H](CO)C(=O)N[C@H](C(N)=O)C(C)C` [LVKRFKKFFRKLKKSV], the minimum inhibitory concentration (MIC) was 31.2 µM (≈ 64 µg/mL) against Bacillus subtilis; not below 62.4 µM in test [1]; 15.6 µM (≈ 32 µg/mL) against Enterobacter cloacae; 7.79 µM (≈ 16 µg/mL) in [10]; 15.6 µM (≈ 32 µg/mL) with Escherichia coli; 31.2 µM (≈ 64 µg/mL) in [14]. Besides, the minimum inhibitory concentration (MIC) against Pseudomonas aeruginosa is 7.79 µM (≈ 16 µg/mL); in test [27], 1.95 µM (≈ 4 µg/mL); in test [7], 1.95 µM (≈ 4 µg/mL); in the test on Staphylococcus aureus it was 31.2 µM (≈ 64 µg/mL).

One may read the MIC as the lowest concentration found to suppress growth.
